# Assay results: ChEMBL document CHEMBL1136995, “2,6-Diphenylthiazolo[3,2-b][1,2,4]triazoles as telomeric G-quadruplex stabilizers” (Bioorg Med Chem Lett, 2009)
# Active and inactive are the calls of the source. The rule behind the calls is not given here.
# Assays:
# Type in all cases: nucleic-acid assay
# Nucleic Acid [1] = experiment: Binding affinity to G-quadruplex F21T DNA assessed as change in melting temperature at 3 uM under K+ ionic conditions by FRET assay
# Nucleic Acid [2] = experiment: Binding affinity to G-quadruplex F21T DNA assessed as change in melting temperature at 3 uM under Na+ ionic conditions by FRET assay
# Nucleic Acid [3] = experiment: Binding affinity to G-quadruplex F21T DNA assessed as change in melting temperature at 0.8 uM under K+ ionic conditions by FRET assay
# Nucleic Acid [4] = experiment: Binding affinity to G-quadruplex F21T DNA assessed as change in melting temperature at 0.6 uM under K+ ionic conditions by FRET assay
# Nucleic Acid [5] = experiment: Binding affinity to G-quadruplex F21T DNA assessed as quadruplex stabilization at 3 uM by FRET assay in presence of duplex ds26 oligonucleotide
# Nucleic Acid [6] = experiment: Binding affinity to G-quadruplex F21T DNA assessed as change in melting temperature at 0.3 uM under K+ ionic conditions by FRET assay
# Nucleic Acid [7] = experiment: Binding affinity to G-quadruplex F21T DNA assessed as change in melting temperature at 0.1 uM under K+ ionic conditions by FRET assay
SMILES,ΔTm (Nucleic Acid [1]),ΔTm (Nucleic Acid [2]),Activity (Nucleic Acid [5]),other results
Oc1ccc(-c2nc3scc(-c4ccc(O)cc4)n3n2)cc1,< 1 °C,< 1 °C,–,–
Cc1oc2nc1-c1nc(co1)-c1nc(co1)-c1nc(co1)-c1nc(co1)-c1nc(co1)C1=NC(CS1)c1nc-2c(C)o1 (stereo not drawn),–,–,–,ΔTm (Nucleic Acid [3]): 15 °C; ΔTm (Nucleic Acid [4]): 10 °C
c1cc(-c2nc3scc(-c4ccc(OCCN5CCCCC5)cc4)n3n2)ccc1OCCN1CCCCC1,8.7 °C,2.1 °C,Active,–
CCOC(=O)c1ccc(-c2csc3nc(-c4ccc(OCc5ccccc5)cc4)nn23)cc1,< 1 °C,< 1 °C,–,–
O=C(NCCN1CCCCC1)c1ccc(-c2csc3nc(-c4ccc(OCCN5CCCCC5)cc4)nn23)cc1,11.2 °C,5 °C,Active,–
O=C(NCCN1CCCCC1)c1ccc(-c2csc3nc(-c4ccc(OCCN5CCCC5)cc4)nn23)cc1,14.6 °C,5.9 °C,inactive,–
c1ccc(COc2ccc(-c3nc4scc(-c5ccc(OCc6ccccc6)cc5)n4n3)cc2)cc1,< 1 °C,< 1 °C,–,–
NC(=O)c1cccc(C(N)=O)n1,–,–,–,ΔTm (Nucleic Acid [6]): 15 °C; ΔTm (Nucleic Acid [7]): 10 °C
O=C(NCCN1CCCCC1)c1ccc(-c2csc3nc(-c4ccc(OCc5ccccc5)cc4)nn23)cc1,2.7 °C,< 1 °C,–,–
O=C(NCCN1CCCCC1)c1ccc(-c2csc3nc(-c4ccc(O)cc4)nn23)cc1,1.8 °C,< 1 °C,–,–
